From paper PMC11219871, “Epigenetic-based differentiation therapy for Acute Myeloid Leukemia” (Nature Communications, 2024)

What was measured:
[1] = test system: primary AML patient samples; assay: Differentiation assay, CD11b flow cytometry in primary samples; assay type: cell-based, human; conditions: for CD11b-positive cells (%): daily 48 h
Method: Next, the cells were washed twice with phosphate-buffered saline (PBS) and resuspended in 1X Binding Buffer at a concentration of 1 × 10^6 cells/mL. An 8-µL aliquot of APC-CD11b (BD Pharmingen, Franklin Lakes, NJ, USA) and 1 µL of FITC annexin-V (AV) (BD Pharmingen, Franklin Lakes, NJ, USA) antibodies were added and incubated for 15 min at room temperature in the dark. Finally, after the addition of 400 µL of 1X Binding Buffer to each tube, samples were collected on a BD FACSCanto flow cytometer (Becton Dickinson, San Jose, CA, USA) and analyzed using FlowJo software.
Peripheral blood (PB) specimens were obtained from preliminarily diagnosed AML patients who had not received any treatment before specimens were collected. All patients gave informed consent for their participation in this study, which was approved by the Clinical Research Ethics Committee of Clínica Universidad de Navarra. Written informed consent was obtained from each participant. PB was mixed with an ammonium chloride-potassium (ACK) buffer lysis (0.15 mol/L NH4Cl, 10 mmol/L KHCO3, 0.1 mmol/L ethylenediaminetetraacetic acid, pH 7.2) at a 1:2 volume ratio by gentle inversion, incubated for 10 min and centrifuged at 200 g for 10 min. The cell pellet was washed twice with PBS and finally resuspended in EGM2 medium (Cambrex Bioscience, Walkersville, MD). EGM2 contains 2% fetal calf serum, hydrocortisone, heparin, antibiotics, epidermal growth factor, human fibroblast growth factor, insulin-like growth factor, vascular endothelial growth factor, and ascorbic acid. The cells were plated at 1 × 10^6 cells/mL and treated daily with 200 and 500 nM of CM-444 and CM-1758 for 48 h. Next, the differentiation assay was performed as described above.

GF-D8 = assay: Cell proliferation assay: GI50; assay type: cell-based
Method: (§1) Cell proliferation was analyzed using the CellTiter 96 Aqueous One Solution Cell Proliferation Assay (Promega, Madison, WI). This is a colorimetric method for determining the number of viable cells in proliferation. For the assay, suspension cells were cultured in triplicate at a density of 1 × 10^6 cells/mL in 96-well plates (100.000 cells/well, 100 µL/well), using only the 60 inner wells to avoid any border effects. After 48 h of treatment with different doses of each compound (0, 0.001, 0.01, 0.1, 0.2, 0.4, 0.6, 0.8, 1, 2, 3, 4, 5 and 10 µM), the plates were centrifuged at 800 g for 10 min followed by removal of the medium. Then, the cells were incubated with 100 μL/well of medium and 20 μL/well of CellTiter 96 Aqueous One Solution reagent for 1–3 h. The absorbance was recorded at 490 and 650 nm as reference wavelengths using 96-well plate readers until the absorbance of the control cells without treatment was approximately 0.8 AU. The background absorbance was measured in wells with only cell line medium and solution reagent. First, the average of the absorbance from the control wells was subtracted from all other absorbance values. Data were calculated as the percentage of total absorbance of treated cells/absorbance of non-treated cells. The GI50 values of the different compounds were determined using non-linear regression plots made with GraphPad Prism v5 software.

THP-1 = assay: Cell proliferation assay: GI50; assay type: cell-based
Method: as §1

MONO-MAC-6 = assay: Cell proliferation assay: GI50; assay type: cell-based
Method: as §1

NB-4 = assay: Cell proliferation assay: GI50; assay type: cell-based
Method: as §1

KASUMI-1 = assay: Cell proliferation assay: GI50; assay type: cell-based
Method: as §1

UT-7 = assay: Cell proliferation assay: GI50; assay type: cell-based
Method: as §1

TF-1 = assay: Cell proliferation assay: GI50; assay type: cell-based
Method: as §1

OCI-AML3 = assay: Cell proliferation assay: GI50; assay type: cell-based
Method: as §1

OCI-AML2 = assay: Cell proliferation assay: GI50; assay type: cell-based
Method: as §1

M-07e = assay: Cell proliferation assay: GI50; assay type: cell-based
Method: as §1

HEL = assay: Cell proliferation assay: GI50; assay type: cell-based
Method: as §1

## CC1=C(/C=C/C(C)=C/C=C/C(C)=C/C(=O)O)C(C)(C)CCC1 [ATRA, all-trans retinoic acid, reference compound]
[1]; primary AML patient sample 1 (Figure 2C)
  CD11b (%): 26.1%
[1]; primary AML patient sample 2 (Figure 2C)
  CD11b (%): 17.45%
[1]; primary AML patient sample 3 (Figure 2C)
  CD11b (%): 10.26%
[1]; primary AML patient sample 4 (Figure 2C)
  CD11b (%): 25.36%
[1]; primary AML patient sample 5 (Figure 2C)
  CD11b (%): 15.2%
[1]; primary AML patient sample 6 (Figure 2C)
  CD11b (%): 16.3%
[1]; primary AML patient sample 7 (Figure 2C)
  CD11b (%): 29.3%
[1]; primary AML patient sample 8 (Figure 2C)
  CD11b (%): 13.25%
[1]; sample AML-1, 2 µM
  CD11b-positive cells (%): 26.1%
[1]; sample AML-2, 2 µM
  CD11b-positive cells (%): 17.5%
[1]; sample AML-3, 2 µM
  CD11b-positive cells (%): 10.3%
[1]; sample AML-4, 2 µM
  CD11b-positive cells (%): 25.4%
[1]; sample AML-5, 2 µM
  CD11b-positive cells (%): 15.2%
[1]; sample AML-6, 2 µM
  CD11b-positive cells (%): 16.3%
[1]; sample AML-7, 2 µM
  CD11b-positive cells (%): 29.3%
[1]; sample AML-8, 2 µM
  CD11b-positive cells (%): 13.3%
GF-D8; 48 h, GF-D8, 48 h
  GI50: > 10 µM
GF-D8; GF-D8, replicates 1-3
  GI50: > 10 µM
THP-1; Homo sapiens, THP-1, 48 h
  GI50: > 10 µM
THP-1; Homo sapiens, THP-1, replicates 1-3
  GI50: > 10 µM
THP-1; THP-1, replicates 1-3
  GI50: > 10 µM
MONO-MAC-6; Homo sapiens, MONO-MAC-6, 48 h
  GI50: > 10 µM
MONO-MAC-6; Homo sapiens, MONO-MAC-6, MONO-MAC-6, replicates 1-3
  GI50: > 10 µM
MONO-MAC-6; MONO-MAC-6, replicates 1-3
  GI50: > 10 µM
NB-4; Homo sapiens, NB-4, 48 h
  GI50: > 10 µM
NB-4; Homo sapiens, NB-4, NB-4, replicates 1-3
  GI50: > 10 µM
NB-4; NB-4, replicates 1-3
  GI50: > 10 µM
KASUMI-1; Homo sapiens, Kasumi 1, 48 h, KASUMI-1, 48 h
  GI50: > 10 µM
KASUMI-1; Homo sapiens, Kasumi 1, KASUMI-1, replicates 1-3
  GI50: > 10 µM
KASUMI-1; KASUMI-1, replicates 1-3
  GI50: > 10 µM
UT-7; Homo sapiens, UT7, 48 h, UT-7, 48 h
  GI50: > 10 µM
UT-7; Homo sapiens, UT7, UT-7, replicates 1-3
  GI50: > 10 µM
UT-7; UT-7, replicates 1-3
  GI50: > 10 µM
TF-1; Homo sapiens, TF-1, 48 h
  GI50: > 10 µM
TF-1; Homo sapiens, TF-1, TF-1, replicates 1-3
  GI50: > 10 µM
TF-1; TF-1, replicates 1-3
  GI50: > 10 µM
OCI-AML3; Homo sapiens, OCI-AML-3, OCI-AML3, 48 h
  GI50: > 10 µM
OCI-AML3; Homo sapiens, OCI-AML-3, OCI-AML3, replicates 1-3
  GI50: > 10 µM
OCI-AML3; OCI-AML3, replicates 1-3
  GI50: > 10 µM
OCI-AML2; Homo sapiens, OCI-AML2, 48 h
  GI50: > 10 µM
OCI-AML2; Homo sapiens, OCI-AML2, OCI-AML2, replicates 1-3
  GI50: > 10 µM
OCI-AML2; OCI-AML2, replicates 1-3
  GI50: > 10 µM
M-07e; 48 h
  GI50: > 10 µM
M-07e; replicates 1-3
  GI50: > 10 µM
HEL; Homo sapiens, 48 h
  GI50: > 10 µM
HEL; Homo sapiens, replicates 1-3
  GI50: > 10 µM
HEL; replicates 1-3
  GI50: > 10 µM
